Results published in PMC7188728, “A phase I study investigation of metabolism, and disposition of [^14C]-anlotinib after an oral administration in patients with advanced refractory solid tumors” (Cancer Chemotherapy and Pharmacology, 2020).
Counter-ions that a name gives are not always drawn.

Experiments:
[1] = tested on: human cytochrome P450 2C9; design: method as in PMID 29441353; conditions: in vitro; read-out: Half maximum inhibitory concentration; cited from earlier work
VEGFR2/KDR and VEGFR3 = tested on: VEGFR2/KDR and VEGFR3; design: method as in PMID 29454091; conditions: recombinant enzymes; cited from earlier work
[2] = Adverse events after a single dose of 14C anlotinib suspension; assay type: in vivo, human

Structure (SMILES): COc1cc2c(Oc3ccc4[nH]c(C)cc4c3F)ccnc2cc1OCC1(N)CC1 [anlotinib, 1-[[4-(4-fluoro-2-methyl-1H-indol-5-yloxy)-6-methoxyquinolin-7-yl]oxy]methyl) cyclopropanamine dihydrochloride]
- IC50 [1]: 250 nM
- Capability to inhibit VEGFR2/KDR and VEGFR3, times stronger compared with sorafenib (VEGFR2/KDR and VEGFR3): ~500 times
- Capability to inhibit VEGFR2/KDR and VEGFR3, times stronger compared with sunitinib (VEGFR2/KDR and VEGFR3): approximately 20 times
- Alkaline phosphatase increased: number of cases of grade 1/2 (%) ([2]; D1 ~ D18, N = 6): 1 (16.67%) n (%)
- Alkaline phosphatase increased: number of cases of grade 3 (%) ([2]; D1 ~ D18, N = 6): 0 n (%)
- Anemia: number of cases of grade 1/2 (%) ([2]; D1 ~ D18, N = 6): 1 (16.67%) n (%)
- Anemia: number of cases of grade 3 (%) ([2]; D1 ~ D18, N = 6): 0 n (%)
- Aspartate aminotransferase increased: number of cases of grade 1/2 (%) ([2]; D1 ~ D18, N = 6): 0 n (%)
- Aspartate aminotransferase increased: number of cases of grade 3 (%) ([2]; D1 ~ D18, N = 6): 1 (16.67%) n (%)
- At least once (any adverse event): number of cases of grade 1/2 (%) ([2]; D1 ~ D18, N = 6): 5 (83.33%) n (%)
- At least once (any adverse event): number of cases of grade 3 (%) ([2]; D1 ~ D18, N = 6): 3 (50%) n (%)
- Constipation: number of cases of grade 1/2 (%) ([2]; D1 ~ D18, N = 6): 2 (33.33%) n (%)
- Constipation: number of cases of grade 3 (%) ([2]; D1 ~ D18, N = 6): 0 n (%)
- Cough: number of cases of grade 1/2 (%) ([2]; D1 ~ D18, N = 6): 1 (16.67%) n (%)
- Cough: number of cases of grade 3 (%) ([2]; D1 ~ D18, N = 6): 0 n (%)
- Diarrhea: number of cases of grade 1/2 (%) ([2]; D1 ~ D18, N = 6): 1 (16.67%) n (%)
- Diarrhea: number of cases of grade 3 (%) ([2]; D1 ~ D18, N = 6): 0 n (%)
- Hemoptysis: number of cases of grade 1/2 (%) ([2]; D1 ~ D18, N = 6): 0 n (%)
- Hemoptysis: number of cases of grade 3 (%) ([2]; D1 ~ D18, N = 6): 0 n (%)
- Hypertriglyceridemia: number of cases of grade 1/2 (%) ([2]; D1 ~ D18, N = 6): 1 (16.67%) n (%)
- Hypertriglyceridemia: number of cases of grade 3 (%) ([2]; D1 ~ D18, N = 6): 0 n (%)
- Hypoalbuminemia: number of cases of grade 1/2 (%) ([2]; D1 ~ D18, N = 6): 3 (50%) n (%)
- Hypoalbuminemia: number of cases of grade 3 (%) ([2]; D1 ~ D18, N = 6): 0 n (%)
- Hypocalcemia: number of cases of grade 1/2 (%) ([2]; D1 ~ D18, N = 6): 1 (16.67%) n (%)
- Hypocalcemia: number of cases of grade 3 (%) ([2]; D1 ~ D18, N = 6): 0 n (%)
- Hypophosphatemia: number of cases of grade 1/2 (%) ([2]; D1 ~ D18, N = 6): 1 (16.67%) n (%)
- Hypophosphatemia: number of cases of grade 3 (%) ([2]; D1 ~ D18, N = 6): 1 (16.67%) n (%)
- Hypothyroidism: number of cases of grade 1/2 (%) ([2]; D1 ~ D18, N = 6): 1 (16.67%) n (%)
- Hypothyroidism: number of cases of grade 3 (%) ([2]; D1 ~ D18, N = 6): 0 n (%)
- Increased alanine aminotransferase: number of cases of grade 1/2 (%) ([2]; D1 ~ D18, N = 6): 1 (16.67%) n (%)
- Increased alanine aminotransferase: number of cases of grade 3 (%) ([2]; D1 ~ D18, N = 6): 1 (16.67%) n (%)
- Increased blood bilirubin: number of cases of grade 1/2 (%) ([2]; D1 ~ D18, N = 6): 1 (16.67%) n (%)
- Increased blood bilirubin: number of cases of grade 3 (%) ([2]; D1 ~ D18, N = 6): 1 (16.67%) n (%)
- Increased lactate dehydrogenase: number of cases of grade 1/2 (%) ([2]; D1 ~ D18, N = 6): 1 (16.67%) n (%)
- Increased lactate dehydrogenase: number of cases of grade 3 (%) ([2]; D1 ~ D18, N = 6): 0 n (%)
- Increased lipase: number of cases of grade 1/2 (%) ([2]; D1 ~ D18, N = 6): 2 (33.33%) n (%)
- Increased lipase: number of cases of grade 3 (%) ([2]; D1 ~ D18, N = 6): 2 (33.33%) n (%)
- Increased γ-glutamyl transpeptidase: number of cases of grade 1/2 (%) ([2]; D1 ~ D18, N = 6): 1 (16.67%) n (%)
- Increased γ-glutamyl transpeptidase: number of cases of grade 3 (%) ([2]; D1 ~ D18, N = 6): 1 (16.67%) n (%)
- Insomnia: number of cases of grade 1/2 (%) ([2]; D1 ~ D18, N = 6): 2 (33.33%) n (%)
- Insomnia: number of cases of grade 3 (%) ([2]; D1 ~ D18, N = 6): 0 n (%)
- Liver function damage: number of cases of grade 1/2 (%) ([2]; D1 ~ D18, N = 6): 0 n (%)
- Liver function damage: number of cases of grade 3 (%) ([2]; D1 ~ D18, N = 6): 1 (16.67%) n (%)
- Proteinuria: number of cases of grade 1/2 (%) ([2]; D1 ~ D18, N = 6): 1 (16.67%) n (%)
- Proteinuria: number of cases of grade 3 (%) ([2]; D1 ~ D18, N = 6): 0 n (%)
- Rapid atrial fibrillation: number of cases of grade 1/2 (%) ([2]; D1 ~ D18, N = 6): 1 (16.67%) n (%)
- Rapid atrial fibrillation: number of cases of grade 3 (%) ([2]; D1 ~ D18, N = 6): 0 n (%)
- Sinus bradycardia: number of cases of grade 1/2 (%) ([2]; D1 ~ D18, N = 6): 1 (16.67%) n (%)
- Sinus bradycardia: number of cases of grade 3 (%) ([2]; D1 ~ D18, N = 6): 0 n (%)
- Sinus tachycardia: number of cases of grade 1/2 (%) ([2]; D1 ~ D18, N = 6): 1 (16.67%) n (%)
- Sinus tachycardia: number of cases of grade 3 (%) ([2]; D1 ~ D18, N = 6): 0 n (%)
- Stomachache: number of cases of grade 1/2 (%) ([2]; D1 ~ D18, N = 6): 1 (16.67%) n (%)
- Stomachache: number of cases of grade 3 (%) ([2]; D1 ~ D18, N = 6): 0 n (%)
- Alkaline phosphatase increased: number of cases of grade 1/2 (%) ([2]; Research process, N = 6): 1 (16.67%) n (%)
- Alkaline phosphatase increased: number of cases of grade 3 (%) ([2]; Research process, N = 6): 0 n (%)
- Anemia: number of cases of grade 1/2 (%) ([2]; Research process, N = 6): 1 (16.67%) n (%)
- Anemia: number of cases of grade 3 (%) ([2]; Research process, N = 6): 0 n (%)
- Aspartate aminotransferase increased: number of cases of grade 1/2 (%) ([2]; Research process, N = 6): 0 n (%)
- Aspartate aminotransferase increased: number of cases of grade 3 (%) ([2]; Research process, N = 6): 1 (16.67%) n (%)
- At least once (any adverse event): number of cases of grade 3 (%) ([2]; Research process, N = 6): 3 (50%) n (%)
- Constipation: number of cases of grade 1/2 (%) ([2]; Research process, N = 6): 2 (33.33%) n (%)
- Constipation: number of cases of grade 3 (%) ([2]; Research process, N = 6): 0 n (%)
- Cough: number of cases of grade 1/2 (%) ([2]; Research process, N = 6): 1 (16.67%) n (%)
- Cough: number of cases of grade 3 (%) ([2]; Research process, N = 6): 0 n (%)
- Diarrhea: number of cases of grade 1/2 (%) ([2]; Research process, N = 6): 2 (33.33%) n (%)
- Diarrhea: number of cases of grade 3 (%) ([2]; Research process, N = 6): 0 n (%)
- Hemoptysis: number of cases of grade 1/2 (%) ([2]; Research process, N = 6): 1 (16.67%) n (%)
- Hemoptysis: number of cases of grade 3 (%) ([2]; Research process, N = 6): 0 n (%)
- Hypertriglyceridemia: number of cases of grade 1/2 (%) ([2]; Research process, N = 6): 1 (16.67%) n (%)
- Hypertriglyceridemia: number of cases of grade 3 (%) ([2]; Research process, N = 6): 0 n (%)
- Hypoalbuminemia: number of cases of grade 1/2 (%) ([2]; Research process, N = 6): 3 (50%) n (%)
- Hypoalbuminemia: number of cases of grade 3 (%) ([2]; Research process, N = 6): 0 n (%)
- Hypocalcemia: number of cases of grade 1/2 (%) ([2]; Research process, N = 6): 1 (16.67%) n (%)
- Hypocalcemia: number of cases of grade 3 (%) ([2]; Research process, N = 6): 0 n (%)
- Hypophosphatemia: number of cases of grade 1/2 (%) ([2]; Research process, N = 6): 1 (16.67%) n (%)
- Hypophosphatemia: number of cases of grade 3 (%) ([2]; Research process, N = 6): 1 (16.67%) n (%)
- Hypothyroidism: number of cases of grade 1/2 (%) ([2]; Research process, N = 6): 1 (16.67%) n (%)
- Hypothyroidism: number of cases of grade 3 (%) ([2]; Research process, N = 6): 0 n (%)
- Increased alanine aminotransferase: number of cases of grade 1/2 (%) ([2]; Research process, N = 6): 1 (16.67%) n (%)
- Increased alanine aminotransferase: number of cases of grade 3 (%) ([2]; Research process, N = 6): 1 (16.67%) n (%)
- Increased blood bilirubin: number of cases of grade 1/2 (%) ([2]; Research process, N = 6): 1 (16.67%) n (%)
- Increased blood bilirubin: number of cases of grade 3 (%) ([2]; Research process, N = 6): 1 (16.67%) n (%)
- Increased lactate dehydrogenase: number of cases of grade 1/2 (%) ([2]; Research process, N = 6): 1 (16.67%) n (%)
- Increased lactate dehydrogenase: number of cases of grade 3 (%) ([2]; Research process, N = 6): 0 n (%)
- Increased lipase: number of cases of grade 1/2 (%) ([2]; Research process, N = 6): 2 (33.33%) n (%)
- Increased lipase: number of cases of grade 3 (%) ([2]; Research process, N = 6): 2 (33.33%) n (%)
- Increased γ-glutamyl transpeptidase: number of cases of grade 1/2 (%) ([2]; Research process, N = 6): 1 (16.67%) n (%)
- Increased γ-glutamyl transpeptidase: number of cases of grade 3 (%) ([2]; Research process, N = 6): 1 (16.67%) n (%)
- Insomnia: number of cases of grade 1/2 (%) ([2]; Research process, N = 6): 2 (33.33%) n (%)
- Insomnia: number of cases of grade 3 (%) ([2]; Research process, N = 6): 0 n (%)
- Liver function damage: number of cases of grade 1/2 (%) ([2]; Research process, N = 6): 0 n (%)
- Liver function damage: number of cases of grade 3 (%) ([2]; Research process, N = 6): 1 (16.67%) n (%)
- Proteinuria: number of cases of grade 1/2 (%) ([2]; Research process, N = 6): 1 (16.67%) n (%)
- Proteinuria: number of cases of grade 3 (%) ([2]; Research process, N = 6): 0 n (%)
- Rapid atrial fibrillation: number of cases of grade 1/2 (%) ([2]; Research process, N = 6): 1 (16.67%) n (%)
- Rapid atrial fibrillation: number of cases of grade 3 (%) ([2]; Research process, N = 6): 0 n (%)
- Sinus bradycardia: number of cases of grade 1/2 (%) ([2]; Research process, N = 6): 1 (16.67%) n (%)
- Sinus bradycardia: number of cases of grade 3 (%) ([2]; Research process, N = 6): 0 n (%)
- Sinus tachycardia: number of cases of grade 1/2 (%) ([2]; Research process, N = 6): 1 (16.67%) n (%)
- Sinus tachycardia: number of cases of grade 3 (%) ([2]; Research process, N = 6): 0 n (%)
- Stomachache: number of cases of grade 1/2 (%) ([2]; Research process, N = 6): 1 (16.67%) n (%)
- Stomachache: number of cases of grade 3 (%) ([2]; Research process, N = 6): 0 n (%)
- Patients in whom adverse events occurred ([2]; six patients, after a single dosage): five
- Patients in whom severe adverse events (SAE) occurred ([2]; six patients, follow-up period): one
